Where two headings read alike, the source gives them in different places.
Experiments:
Assay type in all cases: in vivo
[1] = test system: passive cutaneous anaphylaxis (PCA); assay: passive cutaneous anaphylaxis (PCA) test in rats, oral; details: Rattus norvegicus, 50 mg/kg p.o., read-out: % Inhibition In Comparison With Controls
Source text: They can be therefore used in prevention and treatment of bronchial asthma, allergic rhinitis, hay fever, urticaria and dermatosis.

[2] = test system: stress-induced ulcers; assay: inhibition of stress-induced ulcers in rats (restraint in a water bath at 25° for 40 minutes); details: 50 mg/kg i.v.
[3] = test system: bronchoconstrictive effect of compound 48/80 (histamine releasing drug); assay: antagonism of the bronchoconstrictive effect of compound 48/80 in rats; details: 3 mg/kg i.v.
[4] = test system: bronchoconstrictive effect of 5-HT; assay: antagonism of the bronchoconstrictive effect of 5-HT in rats; details: 3 mg/kg i.v.
[5] = test system: airway resistance and pulmonary compliance; assay: airway resistance and pulmonary compliance in rats (technique of Palecek et al.); details: dosage as low as 3 mg/kg i.v.
Source text: In addition to anti-allergic activity, the compounds of this invention are effective in decreasing the airway resistance and in increasing pulmonary compliance, and can be therefore used for the treatment of respiratory insufficiency, such as, for example, acute pulmonary insufficiency, as shown by the results obtained in rats using the technique described by Palecek F., Palecekova M., and Aviado D. M. (Arch. Environ. Health, 1967, 15:332-342).

SMILES | inhibition in vivo at 50 mg/kg ([1]; 0.25 h, 15 min. pretreatment) [%] | inhibition in vivo at 50 mg/kg ([1]; 0.5 h, 30 min. pretreatment) [%] | inhibition in vivo at 50 mg/kg ([1]; 1 h, 60 min. pretreatment) [%] | inhibition in vivo at 50 mg/kg ([1]; 2 h, 120 min. pretreatment) [%] | inhibition of the stress-induced ulcers [2] [%] | antagonizing the bronchoconstrictive effect of compound 48/80 [3] [%] | antagonizing the bronchoconstrictive effect of 5-HT [4] [%] | effect on airway resistance [5] | effect on pulmonary compliance [5]
O=C(O)c1ccc2oc(-c3cccc(Cl)c3)cc(=O)c2c1 [6-carboxy-3'-chloro-flavone] | 31 | 22.3 | 5.9 | 2.1 | – | – | – | – | –
O=C(O)c1ccc2oc(C=Cc3ccccc3)cc(=O)c2c1 [6-carboxy-2-(β-phenyl-vinyl)-chromone] | 69.9 | 45.8 | 19.6 | 16.6 | – | – | – | – | –
O=C(O)c1ccc2oc3ccc(OCCO)cc3c(=O)c2c1 [AH 7725, 2-carboxy-7-hydroxyethoxy-xanthone] | 42.6 | 14.4 | 13.3 | 3.8 | – | – | – | – | –
O=C(O)c1ccc2oc(-c3ccc(O)cc3)cc(=O)c2c1 [6-carboxy-4'-hydroxy-flavone] | 9.2 | 4 | 3.7 | 3.9 | – | – | – | – | –
O=C(O)c1cc(=O)c2c(OCC(O)COc3cccc4oc(C(=O)O)cc(=O)c34)cccc2o1 [DSCG, disodium cromoglycate] | 6 | 5.5 | 3.2 | 2.5 | – | – | – | – | –
CC(C)Oc1ccccc1-c1cc(=O)c2cc(C(=O)[O-])ccc2o1.[Na+] [6-carboxy-2'-isopropoxy-flavone sodium salt] | – | – | – | – | 45 | – | – | – | –
O=C(O)c1ccc2oc(-c3cnccn3)cc(=O)c2c1 [6-carboxy-2-(2'-pyrazinyl)-chromone] | 87 | 47.3 | 31.9 | 26.3 | – | – | – | – | –
CC(C)Oc1ccccc1-c1cc(=O)c2cc(C(=O)O)ccc2o1 [6-carboxy-2'-isopropoxy-flavone] | 82.9 | 39.5 | 27.6 | 24.4 | – | 50 | 50 | lower the airway resistance | increase pulmonary compliance
O=C(O)c1ccc2oc(-c3ccccc3)cc(=O)c2c1 [6-carboxy-flavone] | 32.1 | 23.5 | 6.8 | 3.4 | – | – | – | – | –
